These results are taken from US20130005696A1, “BUFADIENOLIDE DERIVATIVES, PREPARING PROCESS THEREOF, COMPOSITION COMPRISING THE SAME AND THE USE THEREOF” (priority 2011, published 2013).

For assay [1], the system named is human hepatic carcinoma HepG2 xenograft. Description: Therapeutic effect against HepG2 xenograft in nude mice. It counts as in vivo, Balb/c nude mice. The settings on record: QOD × 14 d. On the procedure:
(§1) This experiment is to investigate the in vivo inhibitory effect of II1E-01.HCl on growth of human-derived hepatic carcinoma HepG2 cell, human-derived breast carcinoma MDA-MB-231 cell, human-derived lung carcinoma H460 cell, human-derived colon carcinoma HCT-116 cell, human-derived […] MV-4-11 cell xenografts in nude mice.
(§2) Formulation of solvent control (5% anhydrous ethanol & 5% aqueous glucose solution): 2.5 mL anhydrous ethanol was added into a 50 mL tube, followed by addition of 47.5 mL 5% glucose solution for injection followed by shaking, and stored at room temperature before use.
(§3) Formulation of the preparations of the compounds to be tested: formulations with concentrations of 0.4 mg/mL and 0.6 mg/mL were prepared respectively. An appropriate amount of II1E-01.HCl was weighted and put into a 50 mL tube, followed by addition of corresponding volume of solvent to get the desired concentration and mixed using a vortex mixer. After the solid was dissolved completely, the solution was subpackaged into 4 mL vials and stored at refrigerated condition (2-8° C.) until use.
(§4) Experimental animals: Balb/c nude mice (male, six weeks old).
HepG2 cells were in vitro cultured to be proliferated. The cells in the log phase of growth were collected and resuspended in DMEM serum-free medium, and then implanted subcutaneously into the axilla of the right forelimb of nude mice. After 11 days, the tumor size reached about 250 mm^3. The mice bearing the tumor were grouped according to the tumor size into 6 groups, including the group of solvent control, groups of positive controls (Rapamycin 10 mg/kg and Vinorelbine 8 mg/kg), and groups of low (2 mg/kg), middle (4 mg/kg) and high (6 mg/kg) dosages of the testing compound II1E-01.HCl. Each group was administered intravenously at tail. In the solvent control group, the solvent control solution was administered intravenously once every other day (QOD). In the low, middle and high dosage groups of II1E-01.HCl, II1E-01.HCl was administered intravenously once every other day (QOD). In the positive control groups, Rapamycin 10 mg/kg and Vinorelbine 8 mg/kg were administered once a week (QW). The animals were given the drugs for two weeks. In the two week time period, the growth of tumor and the body weight of the mice were observed.
Two weeks after administering (the 25th day after the implantation), the tumor weight and inhibition rate were calculated, and results are listed in Table 5.

Assay [2] concerns human-derived lung cancer H460 xenograft. Description: Therapeutic effect against H460 xenograft in nude mice. The settings on record: QOD × 21 d. It counts as in vivo, Balb/c nude mice. On the procedure:
as §1, §2, §3, §4
NCI-H460 xenograft model was established by tumor implantation. 19 days after the implantation, the tumor size reached about 210 mm^3. The mice bearing the tumor were grouped by randomized block method according to the tumor size into 3 groups, which contain 10 mice in each group and include the group of solvent control, and groups of middle (4 mg/kg) and high (6 mg/kg) dosages of the testing compound II1E-01.HCl. In the solvent control group, 5% glucose solution was administered intravenously at tail once every other day (QOD). The testing compound was administered intravenously at tail once every other day (QOD). The animals were given the drugs for three weeks, during which the growth of tumor and the body weight of the mice were observed.
After continuously administering for 21 days (the 40th day after the implantation), the tumor weight and inhibition rate were calculated, and results are listed in Table 7.

The test system of assay [3] is LoVo human colon carcinoma cell line. Description: In vitro antitumor activity assay (SRB), LoVo. It counts as cell-based. Conditions: Table 2, read-out: IC50, inhibition of cell proliferation, LoVo. From the text: HeLa human cervical carcinoma cell line, A-549 human non-small cell lung carcinoma cell line, NCI-H2228 human lung carcinoma cell line, NCI-H460 human lung carcinoma cell line, MDA-MB-231 human breast carcinoma cell line, MCF-7 human breast carcinoma cell line, Bel-7402 human hepatic carcinoma cell line, Hep3B human hepatic carcinoma cell line, QGY-7703 human hepatic carcinoma cell line, MV-4-11 human leukemic cell line, DAUDI human leukemic cell line, Jurkat human leukemic cell line, A498 renal carcinoma cell line, LoVo human colon carcinoma cell line, HCT1116 human colon carcinoma cell line, A431 human skin carcinoma cell line, PANC-1 human pancreatic carcinoma cell line, U87-MG human brain carcinoma cell line, SH-SY5Y human brain carcinoma cell line, RPMI-8226 human bone carcinoma cell line, HT1080 human fibrosarcoma cell line, PC-3 human prostatic carcinoma cell line, AGS human gastric adenocarcinoma cell line, and BGC-823 human gastric adenocarcinoma cell line were purchased from the Cell Bank of the Chinese Academy of Sciences.
The positive control is bufalin (formulated according to the common method), its purity is 98% or more by HPLC-UV and its structure is identified by NMR. The compounds to be tested and the positive control were diluted with normal saline with a concentration gradient of 10^−4 M, 10^−5 M, 10^−6 M, 10^−7 M and 10^−8 M.
According to cell growth rate, tumor cells in the log phase of growth were seeded into 96-well culture plates at 100 μL per well, and allowed to attach for 24 hours, followed by addition of a test compound or positive control at 10 μL per well. For each concentration, the test was carried out in triplicate wells. Solvent control wells with addition of normal saline into cell culture and a blank well containing only cell culture medium but without cells for zeroing were also included. The tumor cells were incubated for 72 hours at 37° C. under 5% CO2, and then the culture medium (RPMI-1640) was removed. The cells were fixed with 10% cool TCA by incubating for 1 h at 4° C., washed with distilled water for 5 times, and dried naturally in the air. A solution of SRB (Sigma) (4 mg/mL) in 1% glacial acetic acid was added at 100 μL per well, and the cells were stained for 15 minutes at room temperature, and the supernatant was discarded. The plates were washed for 5 times with 1% acetic acid, and dried in air. Finally, Tris solution was added at 150 μL per well, and the absorbance (A) was measured at a wavelength of 515 nm using a microplate reader. The growth inhibition on tumor cell proliferation was calculated according to the following equation:
Growth Inhibition (%)=[(Absorbance of negative control−Absorbance of blank)−(Absorbance of sample−Absorbance of blank)]/(Absorbance of negative control−Absorbance of blank)×100%
Drug concentration: 10 μM, 1 μM, 0.1 μM, 10 nM, 1 nM, 0.1 nM.
IC50 was fitted by GraphPad Prism 4.

The mark [4] stands for this setting: 4 mg/kg iv, listed as II1E-01.HCl, 4 mg/kg.
[5] abbreviates: 6 mg/kg iv, listed as II1E-01.HCl, 6 mg/kg.

Take `C[C@]12CC[C@H](OC(=O)NC3CCNCC3)C[C@H]1CC[C@@H]1[C@@H]2CC[C@]2(C)[C@@H](c3ccc(=O)oc3)CC[C@]12O.Cl` [II1E-01•HCl]: the “Tumor Weight(g) Mean ± SE” value in assay [1] (2 mg/kg iv) came out at 0.3177 ± 0.0410 g; in assay [1] (4 mg/kg iv), 0.0938 ± 0.0121 g; in assay [1] (6 mg/kg iv), 0.0262 ± 0.0054 g; in assay [2] (4 mg/kg iv), 0.5125 ± 0.0307 g; in assay [2] (6 mg/kg iv) it was 0.3246 ± 0.0692 g. Further, the “Inhibition Rate (%)” value in assay [1] (2 mg/kg iv, 2 mg/kg) is given as 58.50%; in assay [1] (2 mg/kg iv, listed as II1E-01.HCl, 2 mg/kg) it was 58.50%; in assay [1] (4 mg/kg iv, 4 mg/kg) it was 87.75%; in assay [1] (setting [4]) it was 87.75%; in assay [1] (6 mg/kg iv, 6 mg/kg), 96.58%; in assay [1] (setting [5]), 96.58%. The “Inhibition Rate (%)” value in assay [2] (4 mg/kg iv, 4 mg/kg) amounted to 61.94%; in assay [2] (setting [4]) it was 61.94%; in assay [2] (6 mg/kg iv, 6 mg/kg), 75.90%; in assay [2] (setting [5]), 75.90%.
For the compound `C[C@]12CC[C@H](O)C[C@H]1CC[C@@H]1[C@@H]2CC[C@]2(C)[C@@H](c3ccc(=O)oc3)CC[C@]12O` [bufalin, reference compound], the IC50 in assay [3] was 29.5 ± 1 nM.
